Laboratory results reported in patent US9358220B2, “Method of treating acne” (THESAN PHARMACEUTICALS, INC., priority 2008, dated 2016).
Where two headings read alike, the source gives them in different places.

Tests used:
CYPlAl [1] = assay: CYP1A1 activity test (P450-GLO assay) in Hep G2 cells
Protocol: The tests are carried out using the P450-GLO assay kit from Promega. At D0, the cells are seeded at a density of approximately 60% confluence, and then treated at Dl with the test substance diluted to various concentrations in the appropriate culture medium. At D2, the CYPlAl activity is measured as recommended by the supplier, using the nonlytic protocol on a cell monolayer.

AhR [2] = biological target: T1, AhR (Homo sapiens, UniProt P35869); assay: AhR activation test, luciferase reporter plox-XRE TATA-Luc in HEP G2 cells; assay type: cell-based; parameters: endogenous in cells; host or cells: Hep G2 cells transduced with the reporter lentivector plox-XRE TATA-Luc; conditions: for AhR percentage activation compared to 0.01 μM TCDD: HEP G2 cells, most active concentration in the range tested
T1 sequence (P35869 11-848): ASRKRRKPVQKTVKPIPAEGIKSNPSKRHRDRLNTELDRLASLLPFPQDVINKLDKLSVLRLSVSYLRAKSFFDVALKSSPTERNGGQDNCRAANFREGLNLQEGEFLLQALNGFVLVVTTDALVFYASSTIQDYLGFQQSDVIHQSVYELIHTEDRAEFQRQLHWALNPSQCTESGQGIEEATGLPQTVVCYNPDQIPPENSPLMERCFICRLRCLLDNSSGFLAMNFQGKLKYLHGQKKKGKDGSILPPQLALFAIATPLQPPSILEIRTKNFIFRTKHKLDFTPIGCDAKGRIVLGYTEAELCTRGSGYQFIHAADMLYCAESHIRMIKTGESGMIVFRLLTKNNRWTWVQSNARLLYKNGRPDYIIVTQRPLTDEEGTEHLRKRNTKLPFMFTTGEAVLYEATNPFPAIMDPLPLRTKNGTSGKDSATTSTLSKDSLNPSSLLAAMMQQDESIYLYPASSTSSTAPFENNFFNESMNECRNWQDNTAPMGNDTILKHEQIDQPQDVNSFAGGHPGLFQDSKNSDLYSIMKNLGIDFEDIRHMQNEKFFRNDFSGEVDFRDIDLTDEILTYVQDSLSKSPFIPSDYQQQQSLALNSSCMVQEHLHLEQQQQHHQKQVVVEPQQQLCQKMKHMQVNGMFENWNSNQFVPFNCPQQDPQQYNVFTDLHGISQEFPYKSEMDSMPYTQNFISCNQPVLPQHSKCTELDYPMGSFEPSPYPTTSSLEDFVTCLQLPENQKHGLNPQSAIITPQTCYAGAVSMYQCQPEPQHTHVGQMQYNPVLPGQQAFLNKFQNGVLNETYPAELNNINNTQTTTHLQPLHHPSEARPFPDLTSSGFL
Protocol: (§1) The Hep G2 cells are cultured in DMEM (Gibco)+10% fetal bovine serum+penicillin+streptomycin, the NHKs in keratinocyte SFM medium (Gibco)+penicillin+streptomycin. At DO, the Hep G2 cells are seeded into 12-well plates in a proportion of approximately 30 000 cells/cm^2. The NHKs are seeded into 6-well plates in a proportion of approximately 15 000 cells/cm^2. After 24 h, the medium is replaced with fresh medium and the cells are transduced with the lentivector plox-XRE TATA-Luc. After 48 h, the cells are subcultured and maintained in culture, and tested for their reactivity to TCDD.
The tests are carried out using the luciferase reporter assay system kit from Promega. At DO, the cells are seeded at a density of approximately 60% confluence, and then treated, at Dl, with the test substance diluted to various concentrations in the appropriate culture medium. At D2, the cells are lysed in CLB buffer, and the lysate is clarified by centrifugation for 5 min at 10 000 g. The luciferase activity is measured in 20 microliters of lysate as recommended by the supplier, using the luminoskan luminometer (Thermo).

sebaceous glands [3] = assay: Sebaceous glands in the ear skin of C57BL/6 mice after topical application; assay type: in vivo
Source text: The effect on the sebaceous glands can be reproduced in animals by topical application of TCDD. A 95% reduction in the number of sebaceous glands can be observed in C57BL/6 mice after 45 days of application of 2 mcg/ml TCDD (FIG. 2).
To reproduce the useful effect of TCDD, in a therapeutic reduction approach the reduction in the surface area of the sebaceous glands in the ears of C57BL/6 mice treated once a day for 45 d with various ligands according to the invention can be studied. The surface area of the sebaceous glands is measured on three serial sections per animal. A reduction of greater than 40% is sought, and obtained here with a concentration, a treatment time and an application frequency considered to be minimal. Isotretinoin is shown by way of example of a product used for the topical and systemic treatment of acne.
The topical application of an AhR ligand such as 6-formylindolo[3,2-b]carbazole (FICZ), at a concentration of 100 mcg/ml, makes it possible to obtain a significant decrease in the sebaceous glands, of the order of 40%. Other ligands according to the invention (see FIGS. 14, 15 and 17) also lead to a decrease in the surface area of the sebaceous glands.

human keratinocytes = assay: Wound healing in vitro on a culture of human keratinocytes (migration index); assay type: cell-based
Protocol: The wound is induced by means of an incision with a yellow micropipette tip (10-200 μl). Migration index value obtained with the ligand/that of the control without ligand. […] This indicates an activity of the AhR activation pathway on the migration of keratinocytes which is found in vivo in humans (FIGS. 5, 6, 10).

sebaceous glands [4] = assay: Sebaceous glands in biopsies of human skin exposed to TCDD (histology); assay type: in vivo; conditions: human skin containing 930 to 2900 ppt of TCDD; 62 biopsies, 620 sections
Protocol: The sebaceous glands, which are present in large numbers in normal human skin, disappear during exposure to toxic doses of TCDD. […] Thus, on the face of an adult, the number is between 400 and 900/cm^2.
For each site, 3 to 10 skin biopsies were analyzed after fixing with formol and staining with hematin-eosin. At least 10 sections per block were analyzed.

dermabrasions = assay: Healing of superficial epidermal-dermal wounds (dermabrasions) in human skin containing TCDD; assay type: in vivo
Source text: Thus, the time to complete healing is reduced from 9.3 to 5 days.

CYPlAl [5] = assay: CYP1A1 activity test (P450-GLO assay) in NHK cells; assay type: cell-based, human; conditions: 10 nM, 24 h
human skin [6] = assay: Messenger RNA expression (RT PCR, transcriptome) in human skin exposed to TCDD; assay type: in vivo
Source text: This observation identifies a new target for medicaments aimed at modulating sebaceous function, a concept exemplified here by AhR activation.
The expression of the messenger RNAs of vascular endothelial growth factors (VEGFs) and of their receptors is increased in skin exposed to TCDD.
The expression of the messenger RNAs of the various estrogen receptors ESRR and ER, of the estrogen responsive finger protein (EFP) ligase and of the estrogen-producing aromatase enzyme is increased in skin exposed to TCDD.

human skin [7] = assay: Estradiol (E2) concentration in human skin exposed to TCDD by ELISA; assay type: in vivo; conditions: human skin containing 1800 ppt of TCDD versus controls
[8] = test system: staphylococcus sp, P. acnes; assay: Bacterial colonization of human skin exposed to TCDD (CFU per cm^2); assay type: in vivo
[9] = human organism; cited from earlier work
AhR [10] = biological target: T1, AhR; assay: Test for potentiation by bacterial flora: AhR activation in HEP G2 cells with skin bacteria extracts and tryptophan; assay type: cell-based; parameters: endogenous in cells; host or cells: Hep G2 cells transduced with the reporter lentivector plox-XRE TATA-Luc
Protocol: The activation value 25.00 on the Y-axis corresponds to ⅙ of the AhR stimulation by 10 nM TCDD in this same system (157.00).

AhR [11] = biological target: T1, AhR; assay: AhR activation test, luciferase reporter plox-XRE TATA-Luc in normal human keratinocytes; assay type: cell-based; parameters: endogenous in cells; host or cells: normal human keratinocytes (NHKs) transduced with the reporter lentivector plox-XRE TATA-Luc; conditions: NHK-plox-XRE TATA-Luc cells, 10 nM, 24 h
Protocol: FIGS. 14, 15 and 16 show AhR activation in HEP G2 cells and normal human keratinocytes (NHKs) stably transfected with the lentivector plox-XRE TATA-Luc.
as §1
The tests are carried out using the luciferase reporter assay system kit from Promega. […] At D2, the cells are lysed in CLB buffer, and the lysate is clarified by centrifugation for 5 min at 10 000 g. The luciferase activity is measured in 20 microliters of lysate as recommended by the supplier, using the luminoskan luminometer (Thermo).
Similar results are noted.

seborrhea = assay: Sebumetric measurement of casual sebum levels on the face of hyperseborrheic men; assay type: in vivo, human; conditions: gel containing 1% tryptophan on the face of two hyperseborrheic men for 3 weeks
Source text: The effect shown in FIG. 16, where it is seen that Propionibacterium acnes (PA) generates an AhR activation, which is highly accentuated by the addition of tryptophan, can be taken advantage of in the context of this invention. This is because PA is one of the key players in sebaceous gland diseases, and it is present in large amounts in facial skin. It could therefore contribute to producing therapeutic amounts of AhR ligands in the presence of tryptophan, or also other aromatic amino acids such as tyrosine and phenylalanine. In order to explore the relevance of this approach, the applicant carried out a test by applying a gel containing 1% tryptophan to the face of two hyperseborrheic men for 3 weeks, and observed a decrease in the seborrhea which could be evaluated at 40% of the starting value using sebumetric measurement of the casual sebum levels.

chronic wounds = assay: Chronic human leg wounds with dermatoporosis treated with tryptophan gel; assay type: in vivo
[12] = human skin containing 1800 ppt of TCDD versus controls

Structure (SMILES): CCOC(=O)c1cc2c(cn1)[nH]c1ccccc12 [B-CCE, Ethyl β-carboline-3-carboxylate]
- induction of CYPlAl activity by ligands according to the invention (CYPlAl [1]; FIG. 17, cell type not stated for the ligands): induction of this AhR-dependent biological activity
- AhR percentage activation compared to 0.01 μM TCDD (AhR [2]): greatest activities

Structure (SMILES): O=Cc1c2c(cc3c1=Nc1ccccc1-3)=Nc1ccccc1-2 [FICZ, 6-Formylindolo[3,2-b]carbazole]
- decrease in the sebaceous glands (sebaceous glands [3]; C57BL/6 mice ears, topical 100 mcg/ml, once a day for 45 d): ~40%
- effect on healing at the highest concentrations (human keratinocytes): a decrease in the effect, or even an inhibition of healing
- stimulation of healing (migration index) (human keratinocytes; μM concentrations): strong stimulation of healing
- AhR percentage activation compared to 0.01 μM TCDD (AhR [2]): greatest activities

Structure (SMILES): Clc1cc2c(cc1Cl)Oc1cc(Cl)c(Cl)cc1O2 [TCDD, 2,3,7,8-tetrachlorodibenzo-p-dioxin]
- sebaceous glands observed in skin biopsies (sebaceous glands [4]): no sebaceous gland could be observed
- reduction in the number of sebaceous glands (sebaceous glands [3]; C57BL/6 mice, topical 2 mcg/ml, 45 days): 95%
- time in which epidermal-dermal wounds are covered (dermabrasions; human exposed to TCDD, average healing time ordinarily 10 days): 3 days
- time to complete healing of dermabrasions (dermabrasions; human skin with 930 to 2900 ppt TCDD, controls 9.3 days): 5 days
- effect on healing at the highest concentrations (human keratinocytes): a decrease in the effect, or even an inhibition of healing
- stimulation of healing (migration index) (human keratinocytes; nM concentrations): strong stimulation of healing
- induction of the CYPlAl activity (CYPlAl [1]; Hep G2 cells, 10 nM, 24 h): 250 fold
- induction of the CYPlAl activity (CYPlAl [5]): 20 fold
- expression of messenger RNAs of estrogen receptors ESRR and ER, EFP ligase and aromatase (human skin [6]; [12]): increased
- expression of messenger RNAs of vascular endothelial growth factors (VEGFs) and their receptors (human skin [6]; [12]): increased
- hyaluronate in the dermis (human skin [6]; human skin exposed to TCDD): very substantial accumulation of hyaluronate in the dermis
- messenger RNAs of sebaceous lipogenesis enzymes (human skin [6]; human skin exposed to TCDD, whole transcriptome): considerable reduction
- concentration of estradiol (E2) in skin (human skin [7]): increase in the concentration of estradiol
- P. acnes colonization of skin ([8]; human skin exposed to TCDD): same effect is observed
- colonization of skin by staphylococcus sp (CFU per cm^2) ([8]; human with more than 900 ppt of TCDD in the skin, 4 samples 1 month apart): very greatly decreased
- half-life in human tissues [9]: 4-12 years
- induction of the luciferase activity (AhR [2]; Hep G2-plox-XRE TATA-Luc cells, 10 nM, 24 h): 100 fold
- AhR stimulation (activation value on the Y-axis) (AhR [10]; 10 nM): 157.00
- induction of the luciferase activity (AhR [11]): 10 fold

Structure (SMILES): COc1ccccc1OCCNCC(O)COc1cccc2[nH]c3ccccc3c12 (stereo not shown) [carvedilol, Carvedilol]
- induction of CYPlAl activity by ligands according to the invention (CYPlAl [1]): induction of this AhR-dependent biological activity

Structure (SMILES): O=c1cc(O)cc(/C=C/c2ccc(O)c(O)c2)o1 [hispidin, Hispidin]
- AhR percentage activation compared to 0.01 μM TCDD (AhR [2]): greatest activities

Structure (SMILES): O=c1c2ccccc2nc2n1CCc1c-2[nH]c2ccccc12 [rutaecarpine, Rutaecarpine]
- induction of CYPlAl activity by ligands according to the invention (CYPlAl [1]): induction of this AhR-dependent biological activity

Structure (SMILES): N[C@@H](Cc1c[nH]c2ccccc12)C(=O)O [tryptophan]
- decrease in the seborrhea (casual sebum levels), of the starting value (seborrhea): 40%
- stimulation of healing (migration index) (human keratinocytes; μM concentrations): strong stimulation of healing
- dermatoporotic skin around the wound (chronic wounds): thickening of the dermatoporotic skin around the wound
- healing of chronic wounds (chronic wounds; series of 10 cases of chronic wounds on legs): Contraction of chronic wounds and the development of epithelial healing
- AhR percentage activation compared to 0.01 μM TCDD (AhR [2]): greatest activities
- AhR activation with bacterial extract on addition of tryptophan (AhR [10]; in particular with P. acnes extract): an increase in the activation is observed
